# Results as given in patent publication US12139520B2 (priority 2020, dated 2024).
# Bridge positions count the residues as written; N and C are the ends. Square brackets hold non-standard residues; d marks the D form. Peptide text beside a SMILES is read from it. Hyp = O=C(O)[C@@H]1C[C@@H](O)CN1; Cit = NC(=O)NCCC[C@H](N)C(=O)O
# Assays:
# [1] = molecular target: hAM1 receptor (Homo sapiens, UniProt O60895+Q16602); assay: cAMP assay for in vitro receptor activation, hAM1-R; type: cell-based; conditions: cAMP assay, hAM1 receptor; read-out: hAM1R EC50
# Sequence of hAM1 receptor (Q16602 23-461): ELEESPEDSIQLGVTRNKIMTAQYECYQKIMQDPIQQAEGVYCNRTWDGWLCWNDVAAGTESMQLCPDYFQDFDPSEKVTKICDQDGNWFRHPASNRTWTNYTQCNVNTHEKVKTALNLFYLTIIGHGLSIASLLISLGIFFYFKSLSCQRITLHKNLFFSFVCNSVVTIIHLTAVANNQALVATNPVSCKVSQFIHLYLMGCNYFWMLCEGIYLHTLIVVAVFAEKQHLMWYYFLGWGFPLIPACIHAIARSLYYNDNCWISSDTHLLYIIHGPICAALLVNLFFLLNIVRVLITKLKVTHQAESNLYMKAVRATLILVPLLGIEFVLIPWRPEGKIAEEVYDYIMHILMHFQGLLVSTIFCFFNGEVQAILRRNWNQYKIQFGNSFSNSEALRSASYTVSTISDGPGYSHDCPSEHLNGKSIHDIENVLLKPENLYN
# Sequence of hAM1 receptor (O60895 43-175 partner): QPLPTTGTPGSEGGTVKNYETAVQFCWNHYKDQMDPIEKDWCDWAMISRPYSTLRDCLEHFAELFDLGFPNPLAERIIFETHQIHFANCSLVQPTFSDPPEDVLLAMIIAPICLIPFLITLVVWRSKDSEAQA
# Outline: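 cAMP accumulation was measured in a monoclonal cell line stably overexpressing the hAM1 receptor. Frozen aliquots were thawed and plated at 8000 cells/well in DPBS containing 0.05% casein and 0.5 mM IBMX.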
# [2] = Physical stability of peptide analogues (Thioflavin T fibrillation); type: physicochemical; conditions: maximum ThT signal normalized between hAMY maximum and buffer background; 40° C., shaking, four days; pH 7 per table title
# Outline: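 Maximum ThT emission at 480 nm, after LOESS smoothing, is given as percent of the span from buffer background to hAMY. Conditions: 50 mM buffer at pH 4 or 7, 4 μM dye, 40 °C, repeated shaking, readings every 10 min for four days.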
Structure (SMILES),EC50 [1] [µM],Max ThT signal (%) [2] [%]
CC[C@H](C)[C@H](NC(=O)[C@H](CCCCN)NC(=O)[C@H](CO)NC(=O)[C@H](CCCNC(=N)N)NC(=O)[C@@H]1CCCN1C(=O)[C@H](C)NC(=O)[C@@H](NC(=O)[C@H](CC(N)=O)NC(=O)[C@H](CC(=O)O)NC(=O)[C@H](CCCCN)NC(=O)[C@H](CC(=O)O)NC(=O)[C@H](CCCCN)NC(=O)[C@H](CC(=O)O)NC(=O)[C@@H](NC(=O)[C@H](Cc1ccccc1)NC(=O)[C@H](CCC(N)=O)NC(=O)[C@H](Cc1ccc(O)cc1)NC(=O)[C@@H](NC(=O)[C@H](CCC(N)=O)NC(=O)[C@H](Cc1c[nH]cn1)NC(=O)[C@H](C)NC(=O)[C@H](CC(C)C)NC(=O)[C@H](Cc1c[nH]c2ccccc12)NC(=O)[C@H](CCC(N)=O)NC(=O)[C@@H](NC(=O)[C@@H](NC(=O)[C@@H]1CSSC[C@H](NC(=O)CN)C(=O)N[C@@H](CCCNC(=N)N)C(=O)N[C@@H]([C@@H](C)O)C(=O)NCC(=O)N[C@@H]([C@@H](C)O)C(=O)N1)[C@@H](C)O)C(C)C)[C@@H](C)CC)[C@@H](C)O)C(C)C)C(=O)NCC(=O)N1CCC[C@H]1C(=O)N[C@@H](CC(N)=O)C(=O)NCC(=O)N1C[C@H](O)C[C@H]1C(N)=O [compound 355] (H-GCRTGTCTVQWLAHQIYQFTDKDKDNVAPRSKIGPNG[Hyp]-NH2; disulfide 2-7; N-terminus assumed),> 5,25.350
CC[C@H](C)[C@H](NC(=O)[C@H](CCCCN)NC(=O)[C@@H](NC(=O)[C@H](CCCNC(=N)N)NC(=O)[C@@H]1CCCN1C(=O)[C@H](C)NC(=O)[C@@H](NC(=O)[C@H](CC(N)=O)NC(=O)[C@H](CC(=O)O)NC(=O)[C@H](CCCCN)NC(=O)[C@H](CC(=O)O)NC(=O)[C@H](CCCCN)NC(=O)[C@H](CC(=O)O)NC(=O)[C@@H](NC(=O)[C@H](Cc1ccccc1)NC(=O)[C@H](CCC(N)=O)NC(=O)[C@H](Cc1ccc(O)cc1)NC(=O)[C@@H](NC(=O)[C@H](CCC(N)=O)NC(=O)[C@H](Cc1c[nH]cn1)NC(=O)[C@H](C)NC(=O)[C@H](CC(C)C)NC(=O)[C@H](Cc1c[nH]c2ccccc12)NC(=O)[C@H](CCC(N)=O)NC(=O)[C@@H](NC(=O)[C@@H](NC(=O)[C@@H]1CSSC[C@H](NC(=O)CN)C(=O)N[C@@H](CCCNC(=N)N)C(=O)N[C@@H]([C@@H](C)O)C(=O)NCC(=O)N[C@@H]([C@@H](C)O)C(=O)N1)[C@@H](C)O)C(C)C)[C@@H](C)CC)[C@@H](C)O)C(C)C)[C@@H](C)O)C(=O)NCC(=O)N1CCC[C@H]1C(=O)N[C@@H](CCC(N)=O)C(=O)NCC(=O)N1C[C@H](O)C[C@H]1C(N)=O [compound 357] (H-GCRTGTCTVQWLAHQIYQFTDKDKDNVAPRTKIGPQG[Hyp]-NH2; disulfide 2-7; N-terminus assumed),> 5,19.750
CC[C@H](C)[C@H](NC(=O)[C@H](CCCCN)NC(=O)[C@H](CO)NC(=O)[C@H](CCCNC(=N)N)NC(=O)[C@@H]1CCCN1C(=O)[C@H](C)NC(=O)[C@@H](NC(=O)[C@H](CC(N)=O)NC(=O)[C@H](CC(=O)O)NC(=O)[C@H](CCCCN)NC(=O)[C@H](CC(=O)O)NC(=O)[C@H](CCCCN)NC(=O)[C@H](CC(=O)O)NC(=O)[C@@H](NC(=O)[C@H](Cc1ccccc1)NC(=O)[C@H](CCC(N)=O)NC(=O)[C@H](Cc1ccc(O)cc1)NC(=O)[C@@H](NC(=O)[C@H](CCC(N)=O)NC(=O)[C@H](Cc1c[nH]cn1)NC(=O)[C@H](C)NC(=O)[C@H](CC(C)C)NC(=O)[C@H](CCCNC(N)=O)NC(=O)[C@H](CCC(N)=O)NC(=O)[C@@H](NC(=O)[C@@H](NC(=O)[C@@H]1CSSC[C@H](NC(=O)CN)C(=O)N[C@@H](CCCNC(=N)N)C(=O)N[C@@H]([C@@H](C)O)C(=O)NCC(=O)N[C@@H]([C@@H](C)O)C(=O)N1)[C@@H](C)O)C(C)C)[C@@H](C)CC)[C@@H](C)O)C(C)C)C(=O)NCC(=O)N1CCC[C@H]1C(=O)N[C@@H](CC(N)=O)C(=O)NCC(=O)N1C[C@H](O)C[C@H]1C(N)=O [compound 299] (H-GCRTGTCTVQ[Cit]LAHQIYQFTDKDKDNVAPRSKIGPNG[Hyp]-NH2; disulfide 2-7; N-terminus assumed),> 5,26.550
CC[C@H](C)[C@H](NC(=O)[C@H](CCC(N)=O)NC(=O)[C@H](Cc1c[nH]cn1)NC(=O)[C@H](C)NC(=O)[C@H](CC(C)C)NC(=O)[C@H](CCCNC(=N)N)NC(=O)[C@H](CCC(N)=O)NC(=O)[C@@H](NC(=O)[C@@H](NC(=O)[C@@H]1CSSC[C@H](NC(=O)CN)C(=O)N[C@@H](CCCNC(=N)N)C(=O)N[C@@H]([C@@H](C)O)C(=O)NCC(=O)N[C@@H]([C@@H](C)O)C(=O)N1)[C@@H](C)O)C(C)C)C(=O)N[C@@H](Cc1ccc(O)cc1)C(=O)N[C@@H](CCC(N)=O)C(=O)N[C@@H](Cc1ccccc1)C(=O)N[C@H](C(=O)N[C@@H](CC(N)=O)C(=O)N[C@@H](CCCCN)C(=O)N[C@@H](CC(=O)O)C(=O)N[C@@H](CCCCN)C(=O)N[C@@H](CC(=O)O)C(=O)N[C@@H](CC(N)=O)C(=O)N[C@H](C(=O)N[C@@H](C)C(=O)N1CCC[C@H]1C(=O)N[C@@H](CCCNC(=N)N)C(=O)N[C@@H](CO)C(=O)N[C@@H](CCCCN)C(=O)N[C@H](C(=O)N[C@@H](CO)C(=O)N1CCC[C@H]1C(=O)N[C@@H](CCC(N)=O)C(=O)N[C@H](C(=O)N[C@@H](CCCNC(=N)N)C(N)=O)[C@@H](C)O)[C@@H](C)CC)C(C)C)[C@@H](C)O [compound 242] (H-GCRTGTCTVQRLAHQIYQFTNKDKDNVAPRSKISPQTR-NH2; disulfide 2-7; N-terminus assumed),> 5,0.800

# The remaining lines, values ahead:
EC50 [1] [µM],Max ThT signal (%) [2] [%],Structure (SMILES)
> 5,2.700,CC[C@H](C)[C@H](NC(=O)[C@H](CCC(N)=O)NC(=O)[C@H](Cc1c[nH]cn1)NC(=O)[C@H](C)NC(=O)[C@H](CC(C)C)NC(=O)[C@H](CCCNC(=N)N)NC(=O)[C@H](CCC(N)=O)NC(=O)[C@@H](NC(=O)[C@@H](NC(=O)[C@@H]1CSSC[C@H](NC(=O)CN)C(=O)N[C@@H](CCCNC(=N)N)C(=O)N[C@@H]([C@@H](C)O)C(=O)NCC(=O)N[C@@H]([C@@H](C)O)C(=O)N1)[C@@H](C)O)C(C)C)C(=O)N[C@@H](Cc1c[nH]cn1)C(=O)N[C@@H](CCC(N)=O)C(=O)N[C@@H](Cc1ccccc1)C(=O)N[C@H](C(=O)N[C@@H](CC(=O)O)C(=O)N[C@@H](CCCCN)C(=O)N[C@@H](Cc1ccccc1)C(=O)N[C@@H](CCCCN)C(=O)N[C@@H](CC(=O)O)C(=O)N[C@@H](CC(N)=O)C(=O)N[C@H](C(=O)N[C@@H](C)C(=O)N1CCC[C@H]1C(=O)N[C@@H](CCCNC(=N)N)C(=O)N[C@@H](CO)C(=O)N[C@@H](CCCCN)C(=O)N[C@H](C(=O)N[C@@H](CO)C(=O)N1CCC[C@H]1C(=O)N[C@@H](CCC(N)=O)C(=O)N[C@H](C(=O)N1C[C@H](O)C[C@H]1C(N)=O)[C@@H](C)O)[C@@H](C)CC)C(C)C)[C@@H](C)O [compound 193] (H-GCRTGTCTVQRLAHQIHQFTDKFKDNVAPRSKISPQT[Hyp]-NH2; disulfide 2-7; N-terminus assumed)
> 5,4.500,CC[C@H](C)[C@H](NC(=O)[C@H](CCC(N)=O)NC(=O)[C@H](Cc1c[nH]cn1)NC(=O)[C@H](C)NC(=O)[C@H](CC(C)C)NC(=O)[C@H](CCCNC(=N)N)NC(=O)[C@H](CCC(N)=O)NC(=O)[C@@H](NC(=O)[C@@H](NC(=O)[C@@H]1CSSC[C@H](NC(=O)CN)C(=O)N[C@@H](CCCNC(=N)N)C(=O)N[C@@H]([C@@H](C)O)C(=O)NCC(=O)N[C@@H]([C@@H](C)O)C(=O)N1)[C@@H](C)O)C(C)C)C(=O)N[C@@H](Cc1ccc(O)cc1)C(=O)N[C@@H](CCC(N)=O)C(=O)N[C@@H](Cc1ccccc1)C(=O)N[C@H](C(=O)N[C@@H](CC(=O)O)C(=O)N[C@@H](CCCCN)C(=O)N[C@@H](Cc1ccccc1)C(=O)N[C@@H](CCCCN)C(=O)N[C@@H](CC(=O)O)C(=O)N[C@@H](CC(N)=O)C(=O)N[C@H](C(=O)N[C@@H](C)C(=O)N1CCC[C@H]1C(=O)N[C@@H](CCCNC(=N)N)C(=O)N[C@@H](CO)C(=O)N[C@@H](CCCCN)C(=O)N[C@H](C(=O)N[C@@H](CO)C(=O)N1CCC[C@H]1C(=O)N[C@@H](CCC(N)=O)C(=O)N[C@@H](C)C(=O)N1C[C@H](O)C[C@H]1C(N)=O)[C@@H](C)CC)C(C)C)[C@@H](C)O [compound 218] (H-GCRTGTCTVQRLAHQIYQFTDKFKDNVAPRSKISPQA[Hyp]-NH2; disulfide 2-7; N-terminus assumed)
> 5,10.650,CC[C@H](C)[C@H](NC(=O)[C@H](CCC(N)=O)NC(=O)[C@H](Cc1c[nH]cn1)NC(=O)[C@H](C)NC(=O)[C@H](CC(C)C)NC(=O)[C@H](CCCNC(N)=O)NC(=O)[C@H](CCC(N)=O)NC(=O)[C@@H](NC(=O)[C@@H](NC(=O)[C@@H]1CSSC[C@H](NC(=O)CN)C(=O)N[C@@H](CCCNC(=N)N)C(=O)N[C@@H](Cc2ccccc2)C(=O)NCC(=O)N[C@@H]([C@@H](C)O)C(=O)N1)[C@@H](C)O)C(C)C)C(=O)N[C@@H](Cc1ccc(O)cc1)C(=O)N[C@@H](CCC(N)=O)C(=O)N[C@@H](Cc1ccccc1)C(=O)N[C@H](C(=O)N[C@@H](CC(=O)O)C(=O)N[C@@H](CCCCN)C(=O)N[C@@H](CC(=O)O)C(=O)N[C@@H](CCCCN)C(=O)N[C@@H](CC(=O)O)C(=O)N[C@@H](CC(N)=O)C(=O)N[C@H](C(=O)N[C@@H](C)C(=O)N1CCC[C@H]1C(=O)N[C@@H](CCCNC(=N)N)C(=O)N[C@H](C(=O)N[C@@H](CCCCN)C(=O)N[C@H](C(=O)N[C@@H](CO)C(=O)N1CCC[C@H]1C(=O)N[C@@H](CCC(N)=O)C(=O)NCC(=O)N1C[C@H](O)C[C@H]1C(N)=O)C(C)C)[C@@H](C)O)C(C)C)[C@@H](C)O [compound 287] (H-GCRFGTCTVQ[Cit]LAHQIYQFTDKDKDNVAPRTKVSPQG[Hyp]-NH2; disulfide 2-7; N-terminus assumed)
